Source: patent publication US7597904B2, “Metalloproteinase inhibitory agent” (Nestec S.A., priority 2004, dated 2009)

How the values were obtained:
HT-29 cells [1] = assay: Lactate dehydrogenase cytotoxicity test; format: cell-based, human; conditions: Table 4; HT-29, LDH released, 24 hours incubation
Description: Lactate Dehydrogenase Cytotoxicity Test
Cell viability was rigorously measured according the manufacturer's recommendations (Roche Diagnostics). The test is based on the measurement of lactate dehydrogenase (LDH) activity released from the cytosol of damaged cells in the supernatant.
Most current assays for measuring cytotoxicity are based on alterations of plasma membrane permeability and the consequent release of cytoplasmic enzymes or the uptake of dyes, normally excluded by viable cells. We here chose to measure the lactate dehydrogenase (LDH) activity released from damaged cells.

HT-29 cells [2] = assay: Proliferation assay of HT-29 cells with caseinate hydrolysates and fractions (neutral red, OD 540 nm); format: cell-based, human
Protocol: Culture of Human Intestinal Epithelial Cells (IECs) and Proliferation Assay
• Human colonic adenocarcinoma cell line HT29 (ATCC: HTB-38) from the American Type Culture Collection (ATCC, Manassas, Va.). • DMEM, high glucose (4.5 g/l), with stable glutamine (BioConcept, AMIMED, Allschwil, Switzerland)
Undifferentiated cells (passages 45-78) were maintained in glucose-containing DMEM supplemented with 10% FCS at 37° C. in a 5% CO2/air incubator. Culture medium was changed every two days until the cell monolayers reached 50% confluence. For stimulation assays, HT-29 cells were plated at 1.2*10^4 cells/well in 96-well flat-bottom plates. After incubation for 4 days, the amount of cells present in the wells before incubation with the samples was assessed adding neutral red solution in 4 wells and incubating the plate for 45 min. The HT-29 cells were then washed twice with serum-free media (inclusive the wells with neutral red solution). The wells colored with neutral red remained from now on free of any media.
HT-29 cells were then incubated 24 hours respectively in the presence of 80 μg (hydrolysed) sodium caseinate samples in 200 μl DMEM, in 200 μl serum-free medium (blank), in 200 μl medium with serum (positive control) or in 0.9% saline solution (negative control). […] The dye was finally extracted with 100 μl of an extraction solution and the optical density measured at 540 nm. The optical density measured correlates with the number of cells present in the wells.
The proliferation was calculated by the difference in absorbance between the cells having been incubated 24 hours with sodium caseinate samples, with serum-free medium, with medium containing serum or with 0.9% saline solution and the cells before incubation.
The difference in absorbance ΔA540 from the blank (cells incubated with serum-free medium) was normalized. The results were then expressed as percentage with respect to the blank. • Culture medium with serum: DMEM was supplemented with 10% decomplemented FCS and 1% Penicillin-Streptomycin. […]

sodium caseinate
cytotoxic potential, percentage of OD at 490 nm with respect to the control (lysate); row head % prolif (HT-29 cells [1]): 9 +/− 3% | antiproliferative activity (in words) (HT-29 cells [2]; HT-29 cells): no activity | % prolif (percentage of OD at 540 nm with respect to the control (−serum)) (HT-29 cells [2]; Table 2, HT-29, 24 hours incubation, 80 μg sample in 200 μl DMEM): 93 +/− 12% | % prolif (percentage of OD at 540 nm with respect to the control (−serum)) (HT-29 cells [2]; Table 3, HT-29, active fraction with or without heat / enzyme treatment (alcalase, proteinase A)): 93 +/− 7%
